Measurements from the supplement of paper PMC9663587.

Legend:
Neratinib/HKI272 = compound: CCOc1cc2ncc(C#N)c(Nc3ccc(OCc4ccccn4)c(Cl)c3)c2cc1NC(=O)/C=C/CN(C)C [Neratinib/HKI272]; assay: increase in dead-cell fraction, 72 h; higher = more death;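 also: breast cancer cell lines in 384-well plates, stained with Hoechst plus LIVE/DEAD far red dye and imaged, cells above an LDR intensity threshold counted dead, Hoechst-negative corpses included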
BSJ-03-123 = compound: CC(=O)c1c(C)c2cnc(Nc3ccc(N4CCN(CCOCCOCCOCCNC(=O)COc5cccc6c5C(=O)N(C5CCC(=O)NC5=O)C6=O)CC4)cn3)nc2n(C2CCCC2)c1=O [BSJ-03-123]; assay: as above
[1] = compound: CC(=O)c1c(C)c2cnc(Nc3ccc(N4CCNCC4)cn3)nc2n(C2CCCC2)c1=O; assay: as above
[2] = compound: CCc1cnn2c(NCc3ccc[n+]([O-])c3)cc(N3CCCC[C@H]3CCO)nc12; assay: as above
YKL-5-124 = compound: C=CC(=O)Nc1ccc(C(=O)Nc2[nH]nc3c2CN(C(=O)N[C@H](CN(C)C)c2ccccc2)C3(C)C)cc1 [YKL-5-124]; assay: as above
THZ531 [3] = compound: T1, CN(C)C/C=C/C(=O)Nc1ccc(C(=O)N2CCC[C@@H](Nc3ncc(Cl)c(-c4c[nH]c5ccccc45)n3)C2)cc1 [THZ531]; assay: as above
THZ1 [4] = compound: T2, CN(C)C/C=C/C(=O)Nc1ccc(C(=O)Nc2cccc(Nc3ncc(Cl)c(-c4c[nH]c5ccccc45)n3)c2)cc1 [THZ1]; assay: as above
LEE011/Ribociclib = compound: CN(C)C(=O)c1cc2cnc(Nc3ccc(N4CCNCC4)cn3)nc2n1C1CCCC1 [LEE011/Ribociclib]; assay: as above
[5] = compound: CO[C@@H](C)Cn1c(=O)n(C)c2cnc3ccc(-c4cncc(C(C)(C)O)c4)cc3c21
[6] = compound: CC(=O)Nc1cccc(-n2c(=O)n(C3CC3)c(=O)c3c(Nc4ccc(I)cc4F)n(C)c(=O)c(C)c32)c1
Alpelisib/BYL719 = compound: Cc1nc(NC(=O)N2CCC[C@H]2C(N)=O)sc1-c1ccnc(C(C)(C)C(F)(F)F)c1 [Alpelisib/BYL719]
[7] = compound: CCCCOc1c(C(=O)c2c(F)cc(C)cc2F)c[nH]c2nncc1-2
AZD1775 = compound: C=CCn1c(=O)c2cnc(Nc3ccc(N4CCN(C)CC4)cc3)nc2n1-c1cccc(C(C)(C)O)n1 [AZD1775]
[8] = compound: COc1ccc2c(c1)[C@]1(C[C@H]1c1ccc3c(/C=C/c4ccc(CN5C[C@@H](C)O[C@@H](C)C5)cc4)n[nH]c3c1)C(=O)N2
THZ531 [9] = compound: T1, THZ531
THZ1 [10] = compound: T2, THZ1
BVD523 = compound: CC(C)Nc1cc(-c2c[nH]c(C(=O)N[C@H](CO)c3cccc(Cl)c3)c2)c(Cl)cn1 [BVD523]
Rucaparib = compound: CNCc1ccc(-c2[nH]c3cc(F)cc4c3c2CCNC4=O)cc1 [Rucaparib]
Cediranib/AZD2171 = compound: COc1cc2c(Oc3ccc4[nH]c(C)cc4c3F)ncnc2cc1OCCCN1CCCC1 [Cediranib/AZD2171]
Saracatinib/AZD0530 = compound: CN1CCN(CCOc2cc(OC3CCOCC3)c3c(Nc4c(Cl)ccc5c4OCO5)ncnc3c2)CC1 [Saracatinib/AZD0530]
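For GR50, 72 h in this document: breast cancer and non-malignant breast epithelial cell lines, Deep Dye Drop or Dye Drop imaging, nine half-log doses, GR normalized to time-zero plates and DMSO-only controls.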

T47D
increase in dead-cell fraction (Neratinib/HKI272; 0.0003162 µM): -0.0033
increase in dead-cell fraction (Neratinib/HKI272; 0.001 µM): 0.0054
increase in dead-cell fraction (Neratinib/HKI272; 0.003162 µM): 0.0022
increase in dead-cell fraction (Neratinib/HKI272; 0.01 µM): 0.0045
increase in dead-cell fraction (Neratinib/HKI272; 0.03162 µM): 0.0043
increase in dead-cell fraction (Neratinib/HKI272; 0.1 µM): 0.0001
increase in dead-cell fraction (Neratinib/HKI272; 0.3162 µM): 0.0101
increase in dead-cell fraction (Neratinib/HKI272; 1 µM): 0.0084
increase in dead-cell fraction (Neratinib/HKI272; 3.162 µM): 0.0225
increase in dead-cell fraction (BSJ-03-123; 0.001 µM): 0.0097
increase in dead-cell fraction (BSJ-03-123; 0.003162 µM): 0.0074
increase in dead-cell fraction (BSJ-03-123; 0.01 µM): 0.0101
increase in dead-cell fraction (BSJ-03-123; 0.03162 µM): 0.0084
increase in dead-cell fraction (BSJ-03-123; 0.1 µM): 0.019
increase in dead-cell fraction (BSJ-03-123; 0.3162 µM): 0.021
increase in dead-cell fraction (BSJ-03-123; 1 µM): 0.0319
increase in dead-cell fraction (BSJ-03-123; 3.162 µM): 0.022
increase in dead-cell fraction (BSJ-03-123; 10 µM): 0.0281
increase in dead-cell fraction ([1]; 0.0003162 µM): 0.0016
increase in dead-cell fraction ([1]; 0.001 µM): -0.001
increase in dead-cell fraction ([1]; 0.003162 µM): 0.0022
increase in dead-cell fraction ([1]; 0.01 µM): 0.0006
increase in dead-cell fraction ([1]; 0.03162 µM): 0.0078
increase in dead-cell fraction ([1]; 0.1 µM): 0.0116
increase in dead-cell fraction ([1]; 0.3162 µM): 0.0158
increase in dead-cell fraction ([1]; 1 µM): 0.0154
increase in dead-cell fraction ([1]; 3.162 µM): 0.0097
increase in dead-cell fraction ([2]; 0.0001 µM): -0.0001
increase in dead-cell fraction ([2]; 0.0003162 µM): 0.0027
increase in dead-cell fraction ([2]; 0.001 µM): -0.0018
increase in dead-cell fraction ([2]; 0.003162 µM): -0.0021
increase in dead-cell fraction ([2]; 0.01 µM): 0.0073
increase in dead-cell fraction ([2]; 0.03162 µM): 0.0576
increase in dead-cell fraction ([2]; 0.1 µM): 0.106
increase in dead-cell fraction ([2]; 0.3162 µM): 0.138
increase in dead-cell fraction ([2]; 1 µM): 0.127
increase in dead-cell fraction (YKL-5-124; 0.001 µM): 0.0113
increase in dead-cell fraction (YKL-5-124; 0.003162 µM): 0.0129
increase in dead-cell fraction (YKL-5-124; 0.01 µM): 0.0177
increase in dead-cell fraction (YKL-5-124; 0.03162 µM): 0.0322
increase in dead-cell fraction (YKL-5-124; 0.1 µM): 0.0269
increase in dead-cell fraction (YKL-5-124; 0.3162 µM): 0.0156
increase in dead-cell fraction (YKL-5-124; 1 µM): 0.0308
increase in dead-cell fraction (YKL-5-124; 3.162 µM): 0.0206
increase in dead-cell fraction (YKL-5-124; 10 µM): 0.0574
increase in dead-cell fraction (THZ531 [3]; 0.0001 µM): -0.0029
increase in dead-cell fraction (THZ531 [3]; 0.0003162 µM): 0.0085
increase in dead-cell fraction (THZ531 [3]; 0.001 µM): -0.0033
increase in dead-cell fraction (THZ531 [3]; 0.003162 µM): 0.0028
increase in dead-cell fraction (THZ531 [3]; 0.01 µM): -0.0045
increase in dead-cell fraction (THZ531 [3]; 0.03162 µM): 0.0014
increase in dead-cell fraction (THZ531 [3]; 0.1 µM): 0.01
increase in dead-cell fraction (THZ531 [3]; 0.3162 µM): 0.035
increase in dead-cell fraction (THZ531 [3]; 1 µM): 0.0357
increase in dead-cell fraction (THZ1 [4]; 0.0001 µM): -0.0018
increase in dead-cell fraction (THZ1 [4]; 0.0003162 µM): 0.0029
increase in dead-cell fraction (THZ1 [4]; 0.001 µM): 0.0039
increase in dead-cell fraction (THZ1 [4]; 0.003162 µM): 0.005
increase in dead-cell fraction (THZ1 [4]; 0.01 µM): -0.0043
increase in dead-cell fraction (THZ1 [4]; 0.03162 µM): 0.0328
increase in dead-cell fraction (THZ1 [4]; 0.1 µM): 0.0197
increase in dead-cell fraction (THZ1 [4]; 0.3162 µM): 0.0299
increase in dead-cell fraction (THZ1 [4]; 1 µM): 0.0416
increase in dead-cell fraction (LEE011/Ribociclib; 0.001 µM): 0.0085
increase in dead-cell fraction (LEE011/Ribociclib; 0.003162 µM): 0.0069
increase in dead-cell fraction (LEE011/Ribociclib; 0.01 µM): 0.0061
increase in dead-cell fraction (LEE011/Ribociclib; 0.03162 µM): 0.0139
increase in dead-cell fraction (LEE011/Ribociclib; 0.1 µM): 0.0374
increase in dead-cell fraction (LEE011/Ribociclib; 0.3162 µM): 0.0392
increase in dead-cell fraction (LEE011/Ribociclib; 1 µM): 0.0267
increase in dead-cell fraction (LEE011/Ribociclib; 3.162 µM): 0.0405
increase in dead-cell fraction (LEE011/Ribociclib; 10 µM): 0.0242
GR50, 72 h [5]: < 0.001 µM
GR50, 72 h [6]: > 1 µM
GR50, 72 h (Alpelisib/BYL719): 0.153 µM
GR50, 72 h [7]: 0.0149 µM
GR50, 72 h (AZD1775): 5.09 µM
GR50, 72 h [8]: 0.00463 µM
GR50, 72 h (THZ531 [9]): 0.114 µM
GR50, 72 h (THZ1 [10]): 0.0293 µM
GR50, 72 h (BVD523): 3.63 µM
GR50, 72 h (Rucaparib): > 10 µM
GR50, 72 h (Cediranib/AZD2171): 4.1 µM
GR50, 72 h (Saracatinib/AZD0530): 3.95 µM
